Measurements reported in US10079346B2, “Heteroaromatic compounds for organic electronics” (BASF SE, priority 2014, dated 2018).
In brackets after ≈: the same amount, converted by molar mass. Read-outs that look alike come from different tables or passages of the source.

Experiment: Solubility at 25° C. in organic solvents (Example 15)
Type: physicochemical
Conditions: organic solvent or mixture
[1] = chlorobenzene, clorobenzene, read-out: Solubility in clorobenzene
[2] = CHCl3, read-out: Solubility in CHCl3
[3] = DMF, read-out: Solubility in DMF
[4] = THF, read-out: Solubility in THF

solubility [1] [µg/mL] | solubility [2] [µg/mL] | solubility [3] [µg/mL] | solubility [4] [µg/mL] | SMILES
5000 to 10000 (≈ 12.3 to 24.5 mM) | 5000 to 10000 (≈ 12.3 to 24.5 mM) | 1000 to 5000 (≈ 2.45 to 12.3 mM) | 1000 to 5000 (≈ 2.45 to 12.3 mM) | CC(C)(C)OC(=O)n1c2c(c3c1=Nc1ccccc1S3)Sc1ccccc1N=2 [Compound 1a]
> 10000 | > 10000 | < 1000 | > 10000 | CCCCCCCc1ccc2c(c1)N=c1c(c3c(n1C(=O)OC(C)(C)C)=Nc1cc(CCCCCCC)ccc1S3)S2 [Compound 1c]
> 10000 | > 10000 | > 10000 | > 10000 | CCCCCCCCCCCCc1ccc2c(c1)N=c1c(c3c(n1C(=O)OC(C)(C)C)=Nc1cc(CCCCCCCCCCCC)ccc1S3)S2 [Compound 1d]
< 1000 | < 1000 | < 1000 | < 1000 | c1ccc2c(c1)N=c1[nH]c3c(c1S2)Sc1ccccc1N=3 [Compound 2a, reference compound]
